These results are taken from PubChem BioAssay (NCI).

Where “and” joins values, the source holds several entries; their conditions need not be identical. Identical values can stand only once.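 Five concentrations, 48 hours, 96-well plates. GI50 marks 50% less growth. TGI: total growth inhibition.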 Where only a bound is given, the exact number is not on record here.

Among the test systems are SNB-19 CNS; U251 CNS; SF-295 CNS; SF-539 CNS; OVCAR-4 ovarian; SN12C renal; HOP-92 NSCLC; OVCAR-3 ovarian; A498 renal; COLO 205 colon.
Assay in all cases: growth of human tumour cells (NCI), 48 h

As for `COc1ccc(S(=O)(=O)Nc2ccc(-c3csc(N4C(=O)/C(=C/C=C\c5ccccc5)N=C4c4ccccc4)n3)cc2)cc1Cl`, the TGI in the test with SNB-19 CNS is above 100 µM; in the test on U251 CNS, 76.4 µM; in the test with SF-295 CNS it was above 100 µM; in the test with SF-539 CNS, above 100 µM; in the test on OVCAR-4 ovarian, 88.9 µM; with SN12C renal, above 100 µM. Moreover, the TGI is 41.1 µM in the test on HOP-92 NSCLC, above 100 µM in the test on OVCAR-3 ovarian, 73.1 µM in the test on A498 renal and above 100 µM in the test with COLO 205 colon.
`C=C1C(=O)C[C@@]23CCC[C@@]12CC(O)C3` (some centres undefined): the TGI is above 100 µM in the test with SNB-19 CNS; above 100 µM with U251 CNS; above 100 µM with SF-295 CNS; 61.3 µM with SF-539 CNS; 36.2 µM with OVCAR-4 ovarian; 38.1 µM in the test with SN12C renal. Moreover, the TGI in the test on HOP-92 NSCLC is 42.1 µM; in the test on OVCAR-3 ovarian, 33.7 µM; in the test on A498 renal, above 48.9 µM; in the test with COLO 205 colon it was 41.1 µM.
In the case of `CSC1(SC)CCCCCCCCCCC1`, the TGI was above 100 µM in the test with SNB-19 CNS; above 100 µM in the test with U251 CNS; 97.1 µM in the test on SF-295 CNS; above 100 µM with SF-539 CNS; above 100 µM in the test with OVCAR-4 ovarian; above 100 µM in the test on SN12C renal. The TGI was 87.5 µM in the test on HOP-92 NSCLC, 72.7 µM in the test with OVCAR-3 ovarian, above 100 µM with A498 renal and 33.9 µM in the test with COLO 205 colon.
With `CC(=O)c1c(O)c(C)c(O)c2c1OC1=CC(=O)C(C(C)=O)C(=O)C12C` (centres undefined), the GI50 in the test on SNB-19 CNS is 4.26 µM and 12.4 µM; in the test with U251 CNS, 4.13 µM and 11.3 µM; in the test with SF-295 CNS it was 3.48 µM and 8.79 µM; with SF-539 CNS, 5.09 µM and 16.3 µM; with OVCAR-4 ovarian it was 5.28 µM and 9.79 µM; in the test on HOP-92 NSCLC, 5.38 µM and 18.7 µM. Further, the GI50 is 1.05 µM and 5.74 µM in the test with OVCAR-3 ovarian; 0.232 µM and 0.507 µM with A498 renal; 4.71 µM and 19.9 µM in the test with COLO 205 colon. For the same molecule, the TGI with SNB-19 CNS is 18.2 µM and 44.5 µM; with U251 CNS it was 18.4 µM and 47.6 µM; in the test with SF-295 CNS it was 12.4 µM and 33.8 µM; in the test on SF-539 CNS, 18.4 µM and 23.5 µM; in the test with OVCAR-4 ovarian, 61.3 µM and 35.1 µM; with SN12C renal, 8.95 µM and 50.1 µM. For the same molecule, the TGI in the test on HOP-92 NSCLC was 9.69 µM and 57.1 µM; in the test with OVCAR-3 ovarian it was 3.72 µM and 15.5 µM; in the test on A498 renal, 0.412 µM and 0.742 µM; in the test with COLO 205 colon, 17.4 µM and 54.8 µM.
With `CCOP(=O)(OCC)C(F)(F)CC1CCCCC1`, the TGI in the test with SNB-19 CNS, in the test on U251 CNS, in the test on SF-295 CNS, with SF-539 CNS, with OVCAR-4 ovarian and with SN12C renal was above 10 µM throughout. The TGI with HOP-92 NSCLC, with OVCAR-3 ovarian, in the test with A498 renal and in the test on COLO 205 colon was above 10 µM each time.
As for `N#Cc1nnc2c3c(-c4ccc(Cl)cc4)c(C#N)c(=O)[nH]c3nn2c1N`, the TGI came to 19.5 µM in the test with SNB-19 CNS; 10.7 µM in the test with U251 CNS; 23.9 µM in the test on SF-295 CNS; 12.5 µM with SF-539 CNS; 51 µM with OVCAR-4 ovarian; 6.37 µM in the test on SN12C renal. Besides, the TGI in the test with HOP-92 NSCLC was determined as 27.9 µM; in the test on OVCAR-3 ovarian, 8.08 µM; in the test with A498 renal, 10.9 µM; with COLO 205 colon, 28.4 µM.
Take `CC(=O)c1nccc2c1c(C)nc1ccccc12`: the TGI in the test on SNB-19 CNS, with U251 CNS, in the test with SF-295 CNS, with SF-539 CNS, with OVCAR-4 ovarian and in the test with SN12C renal was above 100 µM each time. Further, the TGI in the test on HOP-92 NSCLC, with OVCAR-3 ovarian, in the test with A498 renal and in the test on COLO 205 colon was above 100 µM throughout.
With `CCOC(=O)Cc1nc2c(=O)[nH]cnc2n1C1OC(COC(C)=O)C(OC(C)=O)C1OC(C)=O` (centres undefined), the TGI in the test on SNB-19 CNS, in the test on U251 CNS, in the test on SF-295 CNS, in the test on SF-539 CNS, in the test on OVCAR-4 ovarian and in the test on SN12C renal was above 100 µM each time. The TGI in the test with HOP-92 NSCLC, with OVCAR-3 ovarian, in the test on A498 renal and with COLO 205 colon was above 100 µM in each case.
As for `O=C(Nc1ccccc1)N1N=C(c2ccccc2)C1c1ccccc1` (centres undefined), the TGI with SNB-19 CNS is above 100 µM; in the test with U251 CNS, above 100 µM; with SF-295 CNS, 73.8 µM; with SF-539 CNS it was 34.5 µM; in the test on OVCAR-4 ovarian it was above 100 µM; with SN12C renal it was above 100 µM. In addition, the TGI is 91.9 µM in the test on HOP-92 NSCLC, 42.1 µM with OVCAR-3 ovarian, 42.7 µM in the test with A498 renal and above 100 µM with COLO 205 colon.
Regarding `CN1C/C(=C\c2ccccc2[N+](=O)[O-])C(=O)/C(=C/c2ccccc2[N+](=O)[O-])C1`, the TGI with SNB-19 CNS is 16.6 µM and 19.2 µM; in the test on U251 CNS it was 3.83 µM and 3.86 µM; in the test with SF-295 CNS, 13.7 µM and 7 µM; with SF-539 CNS, 2.3 µM and 3.86 µM; with OVCAR-4 ovarian, 2.27 µM and 0.94 µM; in the test on SN12C renal, 4.88 µM and 2.22 µM. For the same molecule, the TGI with HOP-92 NSCLC is 2.75 µM and 2.61 µM; in the test on OVCAR-3 ovarian it was 1.64 µM and 0.717 µM; with A498 renal, 4.45 µM and 4.72 µM; in the test with COLO 205 colon, 0.865 µM and 0.387 µM. Also, the GI50 in the test with SF-295 CNS is 5.62 µM and 2.46 µM; in the test on SF-539 CNS, 0.53 µM and 1.13 µM; in the test on OVCAR-4 ovarian, 0.708 µM and 0.298 µM; with SN12C renal it was 1.98 µM and 0.809 µM; with OVCAR-3 ovarian it was 0.503 µM and 0.179 µM.
Take `Cn1c(=O)c2[nH]c(N/N=C3/SCC(=O)N3Cc3ccccc3)nc2n(C)c1=O`: the TGI with SNB-19 CNS, in the test with U251 CNS, in the test with SF-295 CNS, with SF-539 CNS, in the test with OVCAR-4 ovarian and in the test on SN12C renal was above 100 µM in each case. For the same molecule, the TGI in the test with HOP-92 NSCLC was 87.7 µM; with OVCAR-3 ovarian it was above 100 µM; in the test with A498 renal, above 100 µM; in the test on COLO 205 colon, above 100 µM.
On to `COC1(OC)/C(=C(\N)C=O)NC(C)(C)N1O`, for which the TGI in the test with SNB-19 CNS, in the test with U251 CNS, in the test with SF-295 CNS, with SF-539 CNS, in the test with OVCAR-4 ovarian and in the test with SN12C renal was above 100 µM each time. The TGI was above 100 µM in the test on HOP-92 NSCLC, 97.5 µM with OVCAR-3 ovarian, above 100 µM in the test on A498 renal and above 100 µM in the test on COLO 205 colon.
